Tested on: 377384-186-R-J1-PDC complex spheroid viability
Test: Anticancer human tumor 377384-186-R-J1-PDC patient-derived pancreatic carcinoma cell line growth inhibition [RAS]
Conditions: for viability, T/C: stronger effect = lower value; active = viability on the fitted dose curve at most 10% of control; inactive = the rest
How it was run: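 Multi-cell-type spheroids: tumor cells plus HUVEC endothelial cells and mesenchymal stem cells. RAS-pathway inhibitors were combined with targeted agents, each dosed in half-log steps down from clinical Cmax, or from 10 microM when Cmax was unknown.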

[1] = curve of first compound, second compound 0.000949 µM
[2] = curve of first compound, second compound 0.003 µM
[3] = curve of first compound, second compound 0.00949 µM
[4] = curve of first compound, second compound 0.03 µM
[5] = curve of first compound, second compound 0.0949 µM
[6] = curve of first compound, second compound 0.3 µM
[7] = second compound 0.000949 µM, first compound 0.0316 µM
[8] = second compound 0.000949 µM, first compound 0.1 µM
[9] = second compound 0.000949 µM, first compound 0.316 µM
[10] = second compound 0.000949 µM, first compound 1 µM
[11] = second compound 0.003 µM, first compound 0.0316 µM
[12] = second compound 0.003 µM, first compound 0.1 µM
[13] = second compound 0.003 µM, first compound 0.316 µM
[14] = second compound 0.003 µM, first compound 1 µM
[15] = second compound 0.00949 µM, first compound 0.0316 µM
[16] = second compound 0.00949 µM, first compound 0.1 µM
[17] = second compound 0.00949 µM, first compound 0.316 µM
[18] = second compound 0.00949 µM, first compound 1 µM
[19] = second compound 0.03 µM, first compound 0.0316 µM
[20] = second compound 0.03 µM, first compound 0.1 µM
[21] = second compound 0.03 µM, first compound 0.316 µM
[22] = second compound 0.03 µM, first compound 1 µM
[23] = second compound 0.0949 µM, first compound 0.0316 µM
[24] = second compound 0.0949 µM, first compound 0.1 µM
[25] = second compound 0.0949 µM, first compound 0.316 µM
[26] = second compound 0.0949 µM, first compound 1 µM
[27] = second compound 0.3 µM, first compound 0.0316 µM
[28] = second compound 0.3 µM, first compound 0.1 µM
[29] = second compound 0.3 µM, first compound 0.316 µM
[30] = second compound 0.3 µM, first compound 1 µM
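Note: spheroids exposed to compounds for seven days before readout.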

C=CC(=O)Nc1cc(Nc2nccc(-c3cn(C)c4ccccc34)n2)c(OC)cc1N(C)CCN(C)C + CCn1c(-c2cccnc2C(C)OC)c2c3cc(ccc31)N1CCOC(CC(NC(=O)C(C(C)C)N(C)C(=O)C3(F)CCN(C(=O)C#CC(C)(C)N(C)C)CC3)C(=O)N3CCCC(N3)C(=O)OCC(C)(C)C2)C1
639 nM: IC50 [6]
699 nM: IC50 [4]
inactive: viability, T/C (second compound 0.000949 µM, first compound 0.00316 µM) 107% | viability, T/C (second compound 0.000949 µM, first compound 0.01 µM) 83.9% | viability, T/C [7] 94.3% | viability, T/C [8] 84.5% | viability, T/C [9] 77.6% | viability, T/C [10] 40% | viability, T/C (second compound 0.003 µM, first compound 0.00316 µM) 93.3% | viability, T/C (second compound 0.003 µM, first compound 0.01 µM) 96.2% | viability, T/C [11] 101% | viability, T/C [12] 80% | viability, T/C [13] 62.9% | viability, T/C [14] 44.2% | viability, T/C (second compound 0.00949 µM, first compound 0.00316 µM) 101% | viability, T/C (second compound 0.00949 µM, first compound 0.01 µM) 100% | viability, T/C [15] 90.5% | viability, T/C [16] 84.6% | viability, T/C [17] 64.1% | viability, T/C [18] 42.6% | viability, T/C (second compound 0.03 µM, first compound 0.00316 µM) 104% | viability, T/C (second compound 0.03 µM, first compound 0.01 µM) 99.1% | viability, T/C [19] 97.6% | viability, T/C [20] 75.6% | viability, T/C [21] 69.9% | viability, T/C [22] 41.9% | viability, T/C (second compound 0.0949 µM, first compound 0.00316 µM) 91.3% | viability, T/C (second compound 0.0949 µM, first compound 0.01 µM) 90.2% | viability, T/C [23] 85% | viability, T/C [24] 76.7% | viability, T/C [25] 66% | viability, T/C [26] 37.7% | viability, T/C (second compound 0.3 µM, first compound 0.00316 µM) 77.7% | viability, T/C (second compound 0.3 µM, first compound 0.01 µM) 81% | viability, T/C [27] 80.7% | viability, T/C [28] 82.4% | viability, T/C [29] 64.3% | viability, T/C [30] 40.9%
682 nM: IC50 [3]
694 nM: IC50 [2]
727 nM: IC50 [1]
598 nM: IC50 [5]

CC(=O)OC12COC1CC(O)C1(C)C(=O)C(O)C3=C(C)C(OC(=O)C(O)C(NC(=O)OC(C)(C)C)c4ccccc4)CC(O)(C(OC(=O)c4ccccc4)C21)C3(C)C (stereo not drawn) + CCn1c(-c2cc(N3CCN(C)CC3)cnc2C(C)OC)c2c3cc(ccc31)-c1csc(n1)CC(NC(=O)C1CC1C)C(=O)N1CCCC(N1)C(=O)OCC(C)(C)C2
active: viability, T/C [7] 3.43% | viability, T/C [8] 4.27% | viability, T/C [9] 3.99% | viability, T/C [10] 4.95% | viability, T/C (second compound 0.000949 µM, first compound 3.16 µM) 5.23% | viability, T/C (second compound 0.000949 µM, first compound 10 µM) 5.38% | viability, T/C [11] 2.96% | viability, T/C [12] 1.47% | viability, T/C [13] 2.97% | viability, T/C [14] 2.21% | viability, T/C (second compound 0.003 µM, first compound 3.16 µM) 2.97% | viability, T/C (second compound 0.003 µM, first compound 10 µM) 2.38% | viability, T/C [15] 1.88% | viability, T/C [16] 2.6% | viability, T/C [17] 2% | viability, T/C [18] 2.25% | viability, T/C (second compound 0.00949 µM, first compound 3.16 µM) 2.05% | viability, T/C (second compound 0.00949 µM, first compound 10 µM) 2.33% | viability, T/C [19] 1.57% | viability, T/C [20] 1.84% | viability, T/C [21] 1.46% | viability, T/C [22] 1.65% | viability, T/C (second compound 0.03 µM, first compound 3.16 µM) 2.16% | viability, T/C (second compound 0.03 µM, first compound 10 µM) 1.64% | viability, T/C [23] 1.97% | viability, T/C [24] 1.63% | viability, T/C [25] 1.57% | viability, T/C [26] 1.56% | viability, T/C (second compound 0.0949 µM, first compound 3.16 µM) 1.78% | viability, T/C (second compound 0.0949 µM, first compound 10 µM) 1.2% | viability, T/C [27] 1.96% | viability, T/C [28] 1.22% | viability, T/C [29] 2.82% | viability, T/C [30] 1.84% | viability, T/C (second compound 0.3 µM, first compound 3.16 µM) 1.23% | viability, T/C (second compound 0.3 µM, first compound 10 µM) 1.25%
< 31.6 nM: IC50 [1] | IC50 [2] | IC50 [3] | IC50 [4] | IC50 [5] | IC50 [6]

CCN1CCN(Cc2ccc(Nc3ncc(F)c(-c4cc(F)c5nc(C)n(C(C)C)c5c4)n3)nc2)CC1
inactive: viability, T/C (compound 0.00316 µM) 98.7% [middle of 4 runs] | viability, T/C (compound 0.01 µM) 79.1% [middle of 4 runs] | viability, T/C (compound 0.0316 µM) 70.3% [middle of 4 runs] | viability, T/C (compound 0.1 µM) 60% [middle of 4 runs] | viability, T/C (compound 0.316 µM) 44.2% [middle of 4 runs] | viability, T/C (compound 1 µM) 38% [middle of 4 runs]
194 nM [middle of 4 runs]: IC50 (curve of compound)

CC1(C)CCC(Nc2ncc(C(F)(F)F)c(-c3c[nH]c4c(P(C)(C)=O)c(C#N)ccc34)n2)CN1 (stereo not drawn) + C#Cc1c(F)ccc2cc(O)cc(-c3ncc4c(N5CC6CCC(C5)N6)nc(OCC56CCCN5CC(F)C6)nc4c3F)c12
< 0.949 nM: IC50 (curve of first compound, second compound 0.0316 µM) | IC50 (curve of first compound, second compound 0.1 µM) | IC50 (curve of first compound, second compound 0.316 µM) | IC50 (curve of first compound, second compound 1 µM) | IC50 (curve of first compound, second compound 3.16 µM) | IC50 (curve of first compound, second compound 10 µM)
active: viability, T/C (second compound 0.1 µM, first compound 0.003 µM) 8.6% | viability, T/C (second compound 0.1 µM, first compound 0.00949 µM) 7.96% | viability, T/C (second compound 0.1 µM, first compound 0.03 µM) 7.41% | viability, T/C (second compound 0.1 µM, first compound 0.0949 µM) 7.16% | viability, T/C (second compound 0.1 µM, first compound 0.3 µM) 6.43% | viability, T/C (second compound 0.316 µM, first compound 0.000949 µM) 4.28% | viability, T/C (second compound 0.316 µM, first compound 0.003 µM) 5.25% | viability, T/C (second compound 0.316 µM, first compound 0.00949 µM) 2.68% | viability, T/C (second compound 0.316 µM, first compound 0.03 µM) 4.16% | viability, T/C (second compound 0.316 µM, first compound 0.0949 µM) 3.74% | viability, T/C (second compound 0.316 µM, first compound 0.3 µM) 2.89% | viability, T/C (second compound 1 µM, first compound 0.000949 µM) 4.34% | viability, T/C (second compound 1 µM, first compound 0.003 µM) 2.56% | viability, T/C (second compound 1 µM, first compound 0.00949 µM) 2.74% | viability, T/C (second compound 1 µM, first compound 0.03 µM) 3.25% | viability, T/C (second compound 1 µM, first compound 0.0949 µM) 2.68% | viability, T/C (second compound 1 µM, first compound 0.3 µM) 2.91% | viability, T/C (second compound 3.16 µM, first compound 0.000949 µM) 2.73% | viability, T/C (second compound 3.16 µM, first compound 0.003 µM) 2.34% | viability, T/C (second compound 3.16 µM, first compound 0.00949 µM) 1.84% | viability, T/C (second compound 3.16 µM, first compound 0.03 µM) 2.23% | viability, T/C (second compound 3.16 µM, first compound 0.0949 µM) 2.14% | viability, T/C (second compound 3.16 µM, first compound 0.3 µM) 2.47% | viability, T/C (second compound 10 µM, first compound 0.000949 µM) 1.18% | viability, T/C (second compound 10 µM, first compound 0.003 µM) 1.24% | viability, T/C (second compound 10 µM, first compound 0.00949 µM) 1.33% | viability, T/C (second compound 10 µM, first compound 0.03 µM) 1.3% | viability, T/C (second compound 10 µM, first compound 0.0949 µM) 0.94% | viability, T/C (second compound 10 µM, first compound 0.3 µM) 0.79%
inactive: viability, T/C (second compound 0.0316 µM, first compound 0.000949 µM) 22.5% | viability, T/C (second compound 0.0316 µM, first compound 0.003 µM) 20.6% | viability, T/C (second compound 0.0316 µM, first compound 0.00949 µM) 14.8% | viability, T/C (second compound 0.0316 µM, first compound 0.03 µM) 14.3% | viability, T/C (second compound 0.0316 µM, first compound 0.0949 µM) 11.5% | viability, T/C (second compound 0.0316 µM, first compound 0.3 µM) 10.4% | viability, T/C (second compound 0.1 µM, first compound 0.000949 µM) 12.3%

— PubChem BioAssay AID2060903 (Molecular Pharmacology Branch, DTP, NCI, 2025)
